Each structure is given as a SMILES string.

Test [1] relates to RPMI-8226 cells. The test can be described thus: Development of resistance to bortezomib in RPMI-8226 cells. The test is classed as cell-based. The settings on record: bortezomib 0.2-0.4 ng/ml + 0.5 μmol/L chlorpromazine (FIG. 5a). The protocol: The cell line RPMI-8226 (DMSZ 402) is a “multiple myeloma” cell line and was chosen because bortezomib is employed as a standard therapy for multiple myeloma. RPMI-8226 cells respond to bortezomib, express HSP27 and develop resistance to Velcade. RPMI-8226 cells were seeded at a cell count of 100,000 cells/ml in each case and regularly passaged. […] In contrast, for RPMI 8226 cells that were treated with 30 μmol/L BVDU, a final cell count of 160,000 cells/ml was detected whereas the final cell count for the culture without the addition of an HSP27 inhibitor amounted to 350,000 cells/ml. As a control, RPMI 8226 cells were treated with the respective test substances alone, FIG. 4b.

For test [2], the target named is T1, HSP27 (Homo sapiens, UniProt P04792). Kind of test: Bio-layer interferometry binding to HSP27. The note with it: wet-chemical experiments. An excerpt: Bio-layer interferometry is a technique for detecting biomolecular interactions. It is an analytical technique that measures the optical interference of white light which is reflected by two surfaces: in each case, one surface consists of a layer of the immobilized target protein on the tip of the biosensor and one is an internal reference surface. The binding of ligands to the target protein alters the interference pattern and can be measured in real time.
For the measurements, an instrument of the ForteBio Octet Red 384 brand was used. The target protein HSP27 was biotinylated and bound to the appropriate sensors (SSA). […]
For measurements by bio-layer interferometry, biotinylated HSP27 protein was first bound to Super-Streptavidin sensors (SSA, Fortebio). […] In the case of a specific binding to HSP27 of the analyte to be measured, the loaded HSP27 sensor generates a stronger signal (response) than the concurrent reference sensor. After the “baseline” has been established by incubation with the reaction buffer (PBST 0.1% Tween 20 plus 3% DMSO), first the association and then the dissociation of the respective analyte is measured in real time. The analytes were measured in increasing concentrations in each case: 1.23-3.7-11.11-33.33-100-300 μM/l.

Test [3] has as its target T1, HSP27. The test can be described thus: Capillary electrophoresis of heat-denatured citrate synthase protein precipitates. The note with it: for Efficacy compared with BVDU: 10 μmol/L vs 750 μmol/L BVDU; for Rel. quantity of protein prec. CS: 10 μmol/L, 43° C. for 120 minutes. The test is classed as biochemical. The protocol: Since the heat-denatured protein aggregates of the citrate synthase from Example 1 are not water-soluble, these can be separated completely from the supernatant by means of centrifugation at room temperature at 16,000×g, 10 min. By using capillary electrophoresis, the compositions of the separated precipitates can be shown and quantified. The relative quantity of protein of precipitated citrate synthase serves as a measure of the efficacy of the test substances.
In each case, 481 nmol/L HSP27 and 1.44 μmol/L citrate synthase in 40 mmol/L HEPES buffer, pH 7.4, were employed. The relative quantity of protein of the precipitated citrate synthase in each case was normalized using a defined quantity of BSA as internal standard. The relative quantity of protein that precipitated when using 750 μmol/L BVDU was set at 1. The other test substances (2 representatives of phenothiazine derivatives of general formula (V), 2 representatives of purine derivatives of formula (I) or (II)) were each employed at a concentration of 10 μmol/L.
Since the heat-denatured protein aggregates of the citrate synthase from Example 2 are not water-soluble, these can be separated completely from the supernatant by means of centrifugation at room temperature at 16,000×g, 10 min. By using capillary electrophoresis, the compositions of the separated precipitates can be shown and quantified. The relative quantity of protein of precipitated citrate synthase serves as a measure of the efficacy of the test substances.
In each case, 481 nM HSP27 and 1.44 μmol/L citrate synthase in 40 mmol/L HEPES buffer, pH 7.4, were employed. The relative quantity of protein of the precipitated citrate synthase in each case was normalized using a defined quantity of BSA as internal standard. The relative quantity of protein that precipitated when using 750 μmol/L BVDU was set at 1. The other test substances (2 representatives of phenothiazine derivatives of general formula (V), 2 representatives of thymine derivatives of formula (I) or (II)) were employed at a concentration of 10 μmol/L in each case.
Otherwise, the experiments were performed as described above: […]

T1 sequence (P04792 whole entry): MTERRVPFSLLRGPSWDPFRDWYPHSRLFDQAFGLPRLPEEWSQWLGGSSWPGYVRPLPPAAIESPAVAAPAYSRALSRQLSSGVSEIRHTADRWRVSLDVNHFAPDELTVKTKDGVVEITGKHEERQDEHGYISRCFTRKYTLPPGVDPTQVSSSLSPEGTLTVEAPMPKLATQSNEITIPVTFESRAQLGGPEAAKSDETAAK

For `CN(C)CCCN1c2ccccc2Sc2ccc(Cl)cc21` [Chlorpromazine, reference compound], in test [1], the “development of resistance to the cytostatic agent bortezomib” value was “significantly inhibited”. In addition, the “living cells at the end of the experiment” value in test [1] (without HSP27 inhibitor 350,000 cells/ml) is 70,000 living cells per ml medium. In addition, in test [2], the “affinity for interaction with HSP27” value is recorded as “only a low affinity”. Further, the “Efficacy compared with BVDU” value in test [3] (43° C. for 120 minutes (Table 1)) and in test [3] (43° C. for 120 minutes (Table 2)) was 79.5 x in each case. The “Rel. quantity of protein prec. CS” value in test [3] (relative to 750 μmol/L BVDU = 1 (Table 1)) and in test [3] (relative to 750 μmol/L BVDU = 1 (Table 2)) was 1.06 each time.

The values are drawn from patent publication US10940150B2, “Thymine derivatives and quinazoline-dione derivatives for the inhibition of HSP27” (TECHNISCHE UNIVERSITAET DRESDEN, priority 2014, dated 2021).
